# Several values for one entry are separate records, joined by “and”; a condition that tells them apart may be missing. Equal entries are not always repeated. Where two headings read alike, the source gives them in different places.
# Experiments:
# HNEs, HBEs, and CFBEs = format: in vitro ADME, human; conditions: ALI cultures, 1000nM of Iva basolateral, 48 hours; for metabolite detected in apical or basolateral media: media prior to cell lysis (data not shown)
# [1] = format: in vivo, human; conditions: capillary plasma, pwCF, ivacaftor 150mg twice daily steady state, n = 8; for Cmax / half-life: human, oral, 150 mg
# CYP3A4 = conditions: in vitro; cited from earlier work
# dopamine transporter = conditions: cited from earlier work
# δ-opioid receptor = conditions: cited from earlier work
# β3-adrenergic receptor = conditions: cited from earlier work
# 5-HT2C receptor = conditions: cited from earlier work
# CFTR = conditions: cited from earlier work
# nasal brushings lysate = conditions: pwCF; cited from earlier work
# [2] = pwCF; cited from earlier work
# 16HBE cells = assay: Uptake of metabolites into 16HBE cells at ALI, LC-MS/MS of cellular lysate; format: in vitro ADME, human; conditions: for mean concentration detected in the cells: 16HBE at ALI, 1000nM of the compound in basolateral media, 48 hours; for crossing of the plasma membrane of airway epithelial cells: 16HBE in vitro model
# Metabolite:parent ratio = format: in vivo, human; conditions: capillary plasma, metabolite:Iva, 12 hour dosing interval
# [3] = tested on: human nasal epithelial cells; assay: Capillary plasma versus nasal epithelial cell concentrations; format: in vivo; conditions: nasal epithelial cell lysate of participants taking ivacaftor
# [4] = format: in vivo, human; conditions: plasma of a participant taking ivacaftor
Molecule,"Cavg, Mean (SD) [1]","Cavg, Median (min, max) [1]","Cmin, Mean (SD) [1]","Cmin, Median (min, max) [1]","Tmax, Median (min, max) [1]",effect on CYP3A4 activity (CYP3A4),"metabolite detected in cells treated with Iva (HNEs, HBEs, and CFBEs; cell lysate)","metabolite detected in apical or basolateral media (HNEs, HBEs, and CFBEs)",activity relative to parent Iva (CFTR),potentiation activity relative to that of Iva (CFTR),"Cmax, Mean (SD) [1]","Cmax, Median (min, max) [1]","T1/2, Mean (SD) [1]","T1/2, Median (min, max) [1]","Tmax, Mean (SD) [1]","Cavg, venous plasma [2] [ng/mL]",mean concentration detected in the cells (16HBE cells),crossing of the plasma membrane of airway epithelial cells (16HBE cells),mean metabolite:parent ratio (MPR) (Metabolite:parent ratio),also measured
"CC(C)(C)c1cc(C(C)(C)C)c(NC(=O)c2c[nH]c3ccccc3c2=O)cc1O [Iva, ivacaftor]",532 (343) ng/mL,"416(221, 1206) ng/mL",352 (245) ng/mL,"287 (113, 813) ng/mL","5 (4, 6) h",reduce CYP3A4 activity,,,,,,,,,,,,,,"parent compound detected in cells (HNEs, HBEs, and CFBEs; cell lysate): detected in all the cell types; Cmax ([1]; Mean (SD)): 744 ng/mL; Cmax ([1]; Median (min, max)): 552 ng/mL; half-life ([1]; T1/2, Mean (SD)): 474 min; half-life ([1]; T1/2, Median (min, max)): 402 min; affinity (dopamine transporter): significant affinity; affinity (δ-opioid receptor): significant affinity; affinity (β3-adrenergic receptor): significant affinity; affinity (5-HT2C receptor): significant affinity"
"CC(C)(C)c1cc(C(C)(C)CO)c(O)cc1NC(=O)c1c[nH]c2ccccc2c1=O [M1-Iva, hydroxymethyl ivacaftor]",726 (365) ng/mL,"607 (256, 1170) ng/mL",501 (228) ng/mL,"475 (55, 839) ng/mL","5 (4, 6) h",stronger inhibition,No M1-Iva and M6-Iva were detected,no M1-Iva and M6-Iva were detected,1/6,1/6,1036 (520) ng/mL,"913 (402, 1750) ng/mL",9.2 (4.29) h,"8.7 (3.35, 16.4) h",5.3 (0.7) h,3156,1000 ng/ml and 2.5 μM,readily enters the airway epithelial cells,1.5,mean concentration in nasal brushings lysate (nasal brushings lysate): 696 ng/mL
"CC(C)(C)c1cc(C(C)(C)C(=O)O)c(O)cc1NC(=O)c1c[nH]c2ccccc2c1=O [M6-Iva, ivacaftor carboxylate]",797 (430) ng/mL,"842 (231, 1418) ng/mL",522 (365) ng/mL,"527 (5.8, 1070) ng/mL","8 (4, 10) h",,No M1-Iva and M6-Iva were detected,no M1-Iva and M6-Iva were detected,inactive metabolite,1/50,927 (456) ng/mL,"918 (265, 1630) ng/mL",8.8 (6.6) h,"8.8 (4.2, 13.5) h",6.9 (3.7) h,3821,15 ng/ml and 0.04 μM,does not readily cross the plasma membrane,1.6,"detection in cellular samples [3]: found only in one cellular sample; average concentration in the cellular lysate (16HBE cells; 16HBE, 5000nM of the compound, 48 hours (data not shown)): 81 ng/ml and 0.19 μM"
ivacaftor hydrate [Iva-hydrate],,,,,,,,,,,,,,,,,,,,detection in plasma (qualitative) [4]: small peaks
